From patent US7141569B2, “Antiviral pyrazolopyridine compounds” (SmithKline Beecham Corporation, priority 2001, dated 2006) come the findings set out here.

This experiment has as its system HSV-1. Description: HSV-1 infection of Vero 76 cells, viral DNA detected by hybridization capture (chemiluminescence). In kind it is cell-based. The settings on record: Human alphaherpesvirus 1; HSV-1 in Vero 76 cells, MOI=0.001, compounds incubated 40–48 hours at 37° C. The procedure: Vero 76 cells were maintained in MEM with Earle's salts, L-glutamine, 8% FBS (Hyclone, A-1111-L) and 100 units/mL Penicillin-100 μg/mL Streptomycin. For assay conditions, FBS was reduced to 2%. Cells are seeded into 96-well tissue culture plates at a density of 5×10^4 cells/well after being incubated for 45 min at 37° C. in the presence of HSV-1 or HSV-2 (MOI=0.001). Test compounds are added to the wells and the plates are incubated at 37° C. for 40–48 hours. Cell lysates are prepared as follows: media was removed and replaced with 150 μL/well 0.2 N NaOH with 1% Igepal CA 630 or NP-40. Plates were incubated up to 14 days at room temperature in a humidified chamber to prevent evaporation.
For the detection probe, a gel-purified, digoxigenin-labeled, 710-bp PCR fragment of the HSV UL-15 sequence was utilized. PCR conditions included 0.5 μM primers, 180 μM dTTP, 20 μM dUTP-digoxigenin (Boehringer Mannheim 1558706), 200 μM each of dATP, dCTP, and dGTP, 1×PCR Buffer II (Perkin Elmer), 2.5 mM MgCl2, 0.025 units/μL of AmpliTaq Gold polymerase (Perkin Elmer), and 5 ng of gel-purified HSV DNA per 100 μL Extension conditions were 10 min at 95° C., followed by 30 cycles of 95° C. for 1 min, 55° C. for 30 sec. and 72° C. for 2 min. The amplification was completed with a 10-min incubation at 72° C. Primers were selected to amplify a 728 bp probe spanning a section of the HSV1 UL15 open reading frame (nucleotides 249–977). Single-stranded transcripts were purified with Promega M13 Wizard kits. The final product was mixed 1:1 with a mixture of 6 M GuSCN, 100 mM EDTA and 200 μg/mL herring sperm DNA and stored at 4° C.
The capture DNA plasmid (HSV UL13 region in pUC) was linearized by cutting with Xba I, denatured for 15 min at 95° C. and diluted immediately into Reacti-Bind DNA Coating Solution (Pierce, 17250, diluted 1:1 with TE buffer, pH 8) at 1 ng/μL 75 μL/well were added to Corning (#3922 or 9690) white 96-well plates and incubated at room temperature for at least 4 hrs before washing twice with 300 μL/well 0.2×SSC/0.05% Tween-20 (SSC/T buffer). The plates were then incubated overnight at room temperature with 150 μL/well 0.2 N NaOH, 1% IGEPAL and 10 μg/mL herring sperm DNA.
Twenty-seven (27) μL of lysate was combined with 45 μL of hybridization solution (final concentration: 3M GuSCN, 50 mM EDTA, 100 μg/ml salmon sperm DNA, 5×Denhardt's solution, 0.25×APE, and 5 ng of the digoxigenin-labeled detection probe). APE is 1.5 M NH4-acetate, 0.15 M NH4H2 phosphate, and 5 mM EDTA adjusted to pH 6.0 Mineral oil (50 μL) was added to prevent evaporation. The hybridization plates were incubated at 95° C. for 10 minutes to denature the DNA, then incubated at 42° C. overnight. The wells were washed 6× with 300 μl/well SSC/T buffer then incubated with 75 μL/well anti-digoxigenin-HRP-conjugated antibody (Boehringer Mannheim 1207733, 1:5000 in TE) for 30 min at room temperature. The wells were washed 6× with 300 μL/well with PBS/0.05% Tween-20 before 75 μL/well SuperSignal LBA substrate (Pierce) was added. The plates were incubated at room temperature for 30 minutes and chemiluminescence was measured in a Wallac Victor reader.
As usually defined, the IC50 is the concentration at which inhibition is half-maximal. As for `COCCNc1ccn2nc(-c3ccc(F)cc3)c(-c3ccnc(NC4CCCC4)n3)c2c1` [Example 8, 3-[2-(Cyclopentylamino)-4-pyrimidinyl]-2-(4-fluorophenyl)-N-(2-methoxyethyl)pyrazolo[1,5-α]pyridin-5-amine], the midpoint of inhibition, the IC50, lay at 1000 nM. This lies in the single-digit micromolar range.

Take `c1cc(-c2c(-c3ccc(OCC4CC4)cc3)nn3ccc(NC4CCCC4)cc23)nc(NC2CCCC2)n1` [Example 20, N-Cyclopentyl-3-[2-(cyclopentylamino)-4-pyrimidinyl]-2-[4-(cyclopropylmethoxy)phenyl]pyrazolo[1,5-α]pyridin-5-amine]: half-maximal inhibition (IC50) was put at 300 nM. Against the preceding molecule, the IC50 is about 3.3-fold lower.

Regarding `COc1ccc(-c2nn3ccc(NC4CCCC4)cc3c2-c2ccnc(NC3CCCC3)n2)cc1` [Example 10, N-Cyclopentyl-3-[2-(cyclopentylamino)-4-pyrimidinyl]-2-(4-methoxyphenyl)-pyrazolo[1,5-α]pyridin-5-amine], the IC50 worked out at 200 nM.

In turn, `COc1ccc(-c2nn3ccc(NC(C)C)cc3c2-c2ccnc(NC3CCCC3)n2)cc1` [Example 12, 3-[2-(Cyclopentylamino)-4-pyrimidinyl]-N-isopropyl-2-(4-methoxyphenyl)pyrazolo[1,5-α]pyridin-5-amine] displayed a 50% inhibitory concentration (IC50) of 800 nM.

In turn, `Fc1ccc(-c2nn3ccc(NC4CCCC4)c(Cl)c3c2-c2ccnc(NC3CCCC3)n2)cc1` [Example 14, 4-Chloro-N-cyclopentyl-3-[2-(cyclopentylamino)pyrimidin-4-yl]-2-(4-fluorophenyl)pyrazolo[1,5-α]pyridin-5-amine] displayed an IC50 of 1900 nM.

Consider `Fc1ccc(-c2nn3cc(NC4CCCC4)ccc3c2-c2ccnc(NC3CCCC3)n2)cc1` [Example 6, N-Cyclopentyl-3-[2-(cyclopentylamino)-4-pyrimidinyl]-2-(4-fluorophenyl)pyrazolo[1,5-α]pyridin-6-amine], for which the IC50 worked out at 1000 nM.

As for `CS(=O)(=O)Nc1ccn2nc(-c3ccc(F)cc3)c(-c3ccnc(NC4CCCC4)n3)c2c1` [Example 4, N-[3-[2-(Cyclopentylamino)-4-pyrimidinyl]-2-(4-fluorophenyl)pyrazolo[1,5-α]pyridin-5-yl]methanesulfonamide], half-maximal inhibition (IC50) was put at 2000 nM.

As to `Nc1ccn2nc(-c3ccc(F)cc3)c(-c3ccnc(NC4CCCC4)n3)c2c1` [Example 3, 3-[2-(Cyclopentylamino)-4-pyrimidinyl]2-(4-fluorophenyl)pyrazolo[1,5-α]pyridin-5-amine], the IC50 turned out to be 5000 nM.

On to `CC(C)Nc1ccn2nc(-c3ccc(F)cc3)c(-c3ccnc(NC4CCCC4)n3)c2c1` [Example 9, 3-[2-(Cyclopentylamino)-4-pyrimidinyl]-2-(4-fluorophenyl)-N-isopropylpyrazolo[1,5-α]pyridin-5-amine], for which the midpoint of inhibition, the IC50, lay at 2900 nM.

On to `Fc1ccc(-c2nn3ccc(NC4CCCC4)c(Br)c3c2-c2ccnc(NC3CCCC3)n2)cc1` [Example 13, 4Bromo-N-cyclopentyl-3-[2-(cyclopentylamino)pyrimidin-4-yl]-2-(4-fluorophenyl)pyrazolo[1,5-α]pyridin-5-amine], for which half-maximal inhibition (IC50) required 3000 nM.

Molecule `CC(C)COc1ccc(-c2nn3ccc(NC4CCCC4)cc3c2-c2ccnc(NC3CCCC3)n2)cc1` [Example 19, N-Cyclopentyl-3-[2-(cyclopentylamino)-4-pyrimidinyl]-2-(4-isobutoxyphenyl)pyrazolo[1,5-α]pyridin-5-amine] returned an IC50 of 500 nM.

In the case of `COc1ccc(-c2nn3ccc(NC4CCCC4)c(Cl)c3c2-c2ccnc(NC3CCCC3)n2)cc1` [Example 16, 4-Chloro-N-cyclopentyl-3-[2-(cyclopentylamino)pyrimidin-4-yl]-2-(4-methoxyphenyl)pyrazolo[1,5-α]pyridin-5-amine], the IC50 is 2800 nM.

Take `Fc1ccc(-c2nn3ccc(NC4CCCC4)cc3c2-c2ccnc(NC3CCCC3)n2)cc1` [Example 2, N-Cyclopentyl-3-[2-(cyclopentylamino)-4-pyrimidinyl]-2-(4-fluorophenyl)pyrazolo[1,5-α]pyridin-5-amine]: the IC50 came out at 500 nM.

In turn, `CC(C)Nc1ccc2c(-c3ccnc(NC4CCCC4)n3)c(-c3ccc(F)cc3)nn2c1` [Example 7, 3-[2-(Cyclopentylamino)-4-pyrimidinyl]-2-(4-fluorophenyl)-N-isopropylpyrazolo[1,5-α]pyridin-6-amine] showed an IC50 of 1200 nM. This IC50 lies about 2.4-fold higher than the previous one.

For `CCCCNc1cc(-c2c(-c3ccc(F)cc3)nn3cccc(NCCCC)c23)ccn1` [Example 17, N-Butyl-3-[2-(butylamino)pyridin-4-yl]-2-(4-fluorophenyl)pyrazolo[1,5-α]pyridin-4-amine], the half-maximal inhibitory concentration (IC50) is 2500 nM.

For `Nc1ccc2c(-c3ccnc(NC4CCCC4)n3)c(-c3ccc(F)cc3)nn2c1` [Example 5, 3-[2-(cyclopentylamino)-4-pyrimidinyl]-2-(4-fluorophenyl)pyrazolo[1,5-α]pyridin-6-amine], the IC50 was determined as 240 nM.

Take `COc1ccc(-c2nn3ccc(NC4CCCC4)c(Br)c3c2-c2ccnc(NC3CCCC3)n2)cc1` [Example 15, 4-Bromo-N-cyclopentyl-3-[2-(cyclopentylamino)pyrimidin-4-yl]-2-(4-methoxyphenyl)pyrazolo[1,5-α]pyridin-5-amine]: the IC50 amounted to 3500 nM.

Molecule `Oc1ccc(-c2nn3ccc(NC4CCCC4)cc3c2-c2ccnc(NC3CCCC3)n2)cc1` [Example 18, 4-{5-(Cyclopentylamino)-3-[2-(cyclopentylamino)-4-pyrimidinyl]pyrazolo[1,5-α]pyridin-2-yl}phenol] returned an IC50 of 1200 nM.
